Source: patent publication US11464770B2, “Anticancer pharmaceutical composition” (NATIONAL CANCER CENTER, priority 2016, dated 2022)
pIC50: −log10 of the molar value. Like-named read-outs stand apart in the source and are kept apart here.

Key:
[1] = tested on: lung cancer cell lines (e.g. NCI-H23, NCI-H1229); assay: Cell based assay, cell viability (CellTiter-Glo), lung cancer cell lines; details: Homo sapiens, 72 hours treatment, CellTiter-Glo
Description: (§1) Commercially available bladder cancer, prostate cancer, lung cancer, breast cancer, blood cancer, pancreatic cancer, colorectal cancer, brain cancer, neuroblastoma, melanoma, liver cancer, cervical carcinoma, ovarian cancer, renal cancer, and papilloma cell lines were each treated with trypsin-EDTA and cultured, followed by being seeded in each well of a 96 well plate. After 24 hours of treatment at constant temperature, the respective cells were treated with the candidate compound so that a final concentration became 0 to 2 μM. The treated cells were additionally cultured for 72 hours, and cell viability was measured by using an ATP detection method (CellTiter-Glo® Luminescent Cell Viability Assay, Promega).

brain cancer cell lines = assay: Cell based assay, cell viability (CellTiter-Glo), brain cancer cell lines; details: Homo sapiens
Description: as §1, with “After 24 hours of treatment at constant temperature, the respective cells were treated with the candidate compound so that a final concentration became 0 to 2 μM.” left out

neuroblastoma cell lines = assay: Cell based assay, cell viability (CellTiter-Glo), neuroblastoma cell lines; details: Homo sapiens; SH-SY5Y cell line
Description: as §1

[2] = A549 cells, read-out: IC50, lung cancer cell line A549
[3] = DMS 114 cells, read-out: IC50, lung cancer cell line DMS 114
[4] = NCI-H23 cells, read-out: IC50, lung cancer cell line NCI-H23
[5] = NCI-H460 cells, read-out: IC50, lung cancer cell line NCI-H460
[6] = NCI-H522 cells, read-out: IC50, lung cancer cell line NCI-H522
[7] = NCI-H1299 cells, read-out: IC50, lung cancer cell line NCI-H1299
[8] = NCI-H1437 cells, read-out: IC50, lung cancer cell line NCI-H1437
[9] = U138-MG, U-138 MG cell line, read-out: IC50, Brain cancer cell line U-138 MG
[10] = T98G cell line, read-out: IC50, Brain cancer cell line T98G
[11] = U-251 MG cell line, read-out: IC50, Brain cancer cell line U-251 MG

Compound	pIC50 [1, 2]	pIC50 [1, 3]	pIC50 ([1]; MRC-5 cells, read-out: IC50)	pIC50 [1, 4]	pIC50 [1, 5]	pIC50 [1, 6]	pIC50 [1, 7]	pIC50 [1, 8]	pIC50 (brain cancer cell lines; [9])	pIC50 (brain cancer cell lines; [10])	pIC50 (brain cancer cell lines; [11])	pIC50 (neuroblastoma cell lines)
CC(=O)c1c([S+](C)[O-])n(Cc2ccc(F)c(Cl)c2)c2c(Br)ccc(Cl)c2c1=O (stereo not drawn) [Compound 22, 3-acetyl-8-bromo-5-chloro-1-(3-chloro-4-fluorobenzyl)-2-(methylsulfinyl)quinolin-4(1H)-one]	< 5.70	< 5.70	< 5.70	< 5.70	< 5.70	< 5.70	< 5.70	< 5.00	< 5.00	< 5.00	< 5.70	< 5.70
CC(=O)c1c(SCc2ccccc2)n(C(=O)c2ccc(Br)cc2)c2c(Br)ccc(Cl)c2c1=O [Compound 23, 3-acetyl-2-(benzylthio)-8-bromo-1-(4-bromobenzoyl)-5-chloroquinolin-4(1H)-one]	< 5.70	< 5.70	< 5.70	< 5.70	< 5.70	< 5.70	< 5.70	< 5.00	< 5.00	< 5.00	< 5.70	< 5.70
CC(=O)c1c(SC(C)C)[nH]c2c(Br)ccc(Cl)c2c1=O [Compound 24, 3-acetyl-8-bromo-5-chloro-2-(isopropylthio)quinolin-4(1H)-one]	< 5.70	< 5.70	< 5.70	< 5.70	< 5.70	< 5.70	< 5.70	< 5.00	< 5.00	< 5.00	< 5.70	< 5.70
CC(=O)c1c([S+]([O-])C(C)C)[nH]c2c(Br)ccc(Cl)c2c1=O (stereo not drawn) [Compound 25, 3-acetyl-8-bromo-5-chloro-2-(isopropylsulfinyl)quinolin-4(1H)-one]	< 5.70	< 5.70	< 5.70	< 5.70	< 5.70	< 5.70	< 5.70	< 5.00	< 5.00	< 5.00	< 5.70	< 5.70
CC(=O)c1c([S+]([O-])C(C)c2ccccc2)[nH]c2c(Br)ccc(Cl)c2c1=O (stereo not drawn) [Compound 26, 3-acetyl-8-bromo-5-chloro-2-((1-phenylethyl)sulfinyl)quinolin-4(1H)-one]	< 5.70	< 5.70	< 5.70	< 5.70	< 5.70	< 5.70	< 5.70	< 5.00	< 5.70	< 5.70	< 5.70	< 5.70
CC(=O)c1c(SCc2cccc(C#N)c2)[nH]c2c(Br)ccc(Cl)c2c1=O [Compound 27, 3-(((3-acetyl-8-bromo-5-chloro-4-oxo-1,4-dihydroquinolin-2-yl)thio)methyl)benzonitrile]	< 5.70	< 5.70	< 5.70	< 5.70	< 5.70	< 5.70	< 5.70	< 5.00	< 5.00	< 5.00	< 5.70	< 5.70
CC(=O)c1c([S+]([O-])Cc2cccc(C#N)c2)[nH]c2c(Br)ccc(Cl)c2c1=O (stereo not drawn) [Compound 28, 3-(((3-acetyl-8-bromo-5-chloro-4-oxo-1,4-dihydroquinolin-2-yl)sulfinyl)methyl)benzonitrile]	< 5.70	< 5.70	6.15	6.12	5.80	5.73	5.95	< 5.00	5.90	< 5.00	6.06	< 5.70
CC(=O)c1c(SCc2ccc(F)c(Cl)c2)[nH]c2c(Br)ccc(Cl)c2c1=O [Compound 30, 3-acetyl-8-bromo-5-chloro-2-((3-chloro-4-fluorobenzyl)thio)quinolin-4(1H)-one]	< 5.70	< 5.70	< 5.70	< 5.70	< 5.70	< 5.70	< 5.70	< 5.00	< 5.00	< 5.00	< 5.70	< 5.70
